Measurements reported in the supplement of paper PMC10307832.

Assays:
Assay in all cases: relative viability (nuclei count vs DMSO), 5 days (fraction); higher = more cells survive
Linsitinib + Tozasertib = compound: C[C@]1(O)C[C@@H](c2nc(-c3ccc4ccc(-c5ccccc5)nc4c3)c3c(N)nccn32)C1 [Linsitinib] + Cc1cc(Nc2cc(N3CCN(C)CC3)nc(Sc3ccc(NC(=O)C4CC4)cc3)n2)n[nH]1 [Tozasertib] (partner 0.1 µM)
How it was run: (§1)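 A single step with final 0.05% Triton X-100, 1% formaldehyde and 1 ug/ml Hoechst fixed the cells and stained nuclei 5 days after treatment. Lung cancer cell lines in 1536-well plates had been treated by pin tool the day after seeding with one drug alone or a fixed anchor-drug dose plus five library-drug doses (not always all listed) in √10 steps, and nuclei were counted on 4× images. Relative viability is the ratio of nuclei in treated wells to nuclei in vehicle wells, taken as the median of duplicate plates.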

Ispinesib + Pemetrexed = compound: Cc1ccc(C(=O)N(CCCN)[C@@H](c2nc3cc(Cl)ccc3c(=O)n2Cc2ccccc2)C(C)C)cc1 [Ispinesib] + Nc1nc2[nH]cc(CCc3ccc(C(=O)N[C@@H](CCC(=O)O)C(=O)O)cc3)c2c(=O)[nH]1 [Pemetrexed] (partner 0.2 µM)
How it was run: as §1

Linsitinib + Bortezomib = compound: C[C@]1(O)C[C@@H](c2nc(-c3ccc4ccc(-c5ccccc5)nc4c3)c3c(N)nccn32)C1 [Linsitinib] + CC(C)C[C@H](NC(=O)[C@H](Cc1ccccc1)NC(=O)c1cnccn1)B(O)O [Bortezomib] (partner 0.002 µM)
How it was run: as §1

Linsitinib + Pictilisib = compound: C[C@]1(O)C[C@@H](c2nc(-c3ccc4ccc(-c5ccccc5)nc4c3)c3c(N)nccn32)C1 [Linsitinib] + CS(=O)(=O)N1CCN(Cc2cc3nc(-c4cccc5[nH]ncc45)nc(N4CCOCC4)c3s2)CC1 [Pictilisib] (partner 1 µM)
How it was run: as §1

| Cell Line | relative viability (Linsitinib + Tozasertib; first compound 0.01 µM) | relative viability (Linsitinib + Tozasertib; first compound 0.03162 µM) | relative viability (Linsitinib + Tozasertib; first compound 0.1 µM) | relative viability (Linsitinib + Tozasertib; first compound 1 µM) | relative viability (Ispinesib + Pemetrexed; first compound 0.001 µM) | relative viability (Ispinesib + Pemetrexed; first compound 0.003162 µM) | relative viability (Ispinesib + Pemetrexed; first compound 0.01 µM) | relative viability (Ispinesib + Pemetrexed; first compound 0.03162 µM) | relative viability (Ispinesib + Pemetrexed; first compound 0.1 µM) | relative viability (Linsitinib + Tozasertib; first compound 0.3162 µM) | relative viability (Linsitinib + Bortezomib; first compound 0.01 µM) | relative viability (Linsitinib + Bortezomib; first compound 0.03162 µM) | relative viability (Linsitinib + Bortezomib; first compound 0.1 µM) | relative viability (Linsitinib + Bortezomib; first compound 0.3162 µM) | relative viability (Linsitinib + Bortezomib; first compound 1 µM) | relative viability (Linsitinib + Pictilisib; first compound 0.01 µM) | relative viability (Linsitinib + Pictilisib; first compound 0.03162 µM) | relative viability (Linsitinib + Pictilisib; first compound 0.1 µM) | relative viability (Linsitinib + Pictilisib; first compound 0.3162 µM) | relative viability (Linsitinib + Pictilisib; first compound 1 µM) |
| --- | --- | --- | --- | --- | --- | --- | --- | --- | --- | --- | --- | --- | --- | --- | --- | --- | --- | --- | --- | --- |
| NCI-H522 | 0.525 | 0.516 | 0.521 | 0.514 | 0.961 | 0.975 | 0.859 | 0.586 | 0.364 |  |  |  |  |  |  |  |  |  |  |  |
| PC-3 [JPC-3] | 0.87 | 0.911 | 0.904 | 0.793 | 1.29 | 1.39 | 1.02 | 0.674 | 0.384 | 0.777 | 0.745 | 0.824 | 0.821 | 0.637 | 0.713 | 0.804 | 0.777 | 0.665 | 0.517 | 0.52 |
| NCI-H1703 |  |  |  |  |  |  |  |  |  |  | 0.416 |  | 0.317 | 0.288 | 0.314 | 0.29 |  | 0.216 | 0.28 | 0.234 |
| EPLC-272H | 0.358 | 0.249 |  | 0.222 | 0.31 | 0.327 | 0.193 | 0.265 | 0.227 |  | 0.882 | 1.11 | 1.06 |  | 0.857 | 0.339 | 0.306 | 0.286 |  | 0.23 |
| NCI-H1792 |  |  |  |  | 1.05 | 1.15 | 0.903 | 0.448 | 0.135 |  | 0.971 | 0.953 | 0.928 | 0.775 | 0.704 | 0.314 | 0.279 | 0.192 | 0.269 | 0.179 |
| NCI-H2085 | 0.768 | 0.748 | 0.932 | 0.706 | 0.946 | 0.905 | 0.943 | 0.917 | 0.361 | 0.817 | 1.03 | 1.06 | 0.997 | 0.888 | 0.976 | 0.431 | 0.462 | 0.426 | 0.466 | 0.471 |
| LK-2 | 0.179 | 0.173 | 0.172 | 0.177 | 0.231 | 0.29 | 0.294 | 0.269 | 0.124 | 0.18 |  |  |  |  |  | 0.698 | 0.529 | 0.553 | 0.494 | 0.851 |
| NCI-H1395 | 0.838 | 0.768 | 0.723 | 0.667 | 0.986 | 1.04 | 0.725 | 0.432 | 0.377 | 0.731 |  |  |  |  |  | 0.568 | 0.603 | 0.618 | 0.573 | 0.556 |
| ABC-1 | 0.18 | 0.164 | 0.145 | 0.171 |  |  |  |  |  | 0.153 | 0.325 | 0.291 | 0.276 | 0.284 | 0.252 | 0.883 | 0.572 | 0.696 | 0.434 | 0.498 |
| RERF-LC-KJ | 0.508 | 0.558 | 0.573 | 0.441 | 0.43 | 0.516 | 0.443 | 0.309 | 0.202 | 0.523 | 0.95 | 1.03 | 1.16 | 0.892 | 0.927 | 0.593 | 0.55 | 0.538 | 0.44 | 0.429 |
| LU99A | 0.284 | 0.27 | 0.281 | 0.234 | 0.188 | 0.21 | 0.163 | 0.163 | 0.141 | 0.264 | 1.15 | 1.04 | 1.19 | 0.34 | 0.693 | 0.291 | 0.347 | 0.315 | 0.204 | 0.242 |
| NCI-H650 | 0.762 | 0.786 | 0.699 | 0.601 | 1.1 | 1.02 | 0.933 | 0.609 | 0.238 | 0.502 | 0.721 | 0.768 | 0.863 |  | 0.584 | 0.875 | 0.876 | 0.953 |  | 0.814 |
| NCI-H2347 | 0.557 | 0.669 | 0.571 | 0.414 | 0.47 | 0.432 | 0.433 | 0.41 | 0.425 |  | 0.885 | 0.737 | 0.941 | 0.77 | 1.05 | 0.802 | 0.609 | 0.597 | 0.695 | 0.717 |
| HARA | 0.135 | 0.106 | 0.202 | 0.138 | 0.278 | 0.203 | 0.209 | 0.187 | 0.171 |  | 1.11 | 1.08 | 1.21 | 0.666 | 1.15 | 0.399 | 0.373 | 0.248 | 0.369 | 0.166 |
| NCI-H2228 | 0.273 | 0.308 | 0.272 | 0.199 | 0.375 | 0.293 | 0.424 | 0.303 | 0.201 | 0.296 | 1.05 | 0.89 | 0.787 | 0.72 | 0.765 | 0.425 | 0.382 | 0.28 | 0.239 | 0.27 |
| EKVX | 0.362 | 0.385 | 0.493 | 0.352 | 0.41 |  | 0.416 | 0.337 | 0.325 | 0.214 | 1.12 | 1.02 | 1.07 | 0.9 | 0.852 | 0.464 | 0.39 | 0.43 | 0.502 | 0.375 |
| HCC-827 | 0.43 | 0.426 | 0.433 | 0.393 | 0.25 | 0.259 | 0.274 | 0.248 | 0.235 |  | 1.04 | 1.04 | 0.934 | 0.827 | 1.01 | 1.07 | 1.19 | 1.11 | 0.88 | 1.12 |
| NCI-H1755 | 0.585 | 0.587 | 0.569 | 0.514 | 0.486 | 0.439 | 0.435 | 0.496 | 0.325 | 0.375 | 0.939 | 0.882 | 0.981 | 0.661 | 0.794 | 0.422 | 0.409 | 0.442 | 0.237 | 0.372 |
